Assay results: BindingDB's records for doi:10.3109/14756366.2010.548329 (Sun Yat-sen University, 2011)

Columns and labels:
[1] = biological target: Acetylcholinesterase (Electrophorus electricus, UniProt O42275); assay: Enzyme Inhibition Assay; details: pH 8; 37 °C
Experimental: (§1) Enzyme solutions were prepared to give 2.0 units/mL in 2 mL aliquots. The assay medium contained phosphate buffer, pH 8.0 (1 mL), 50 μL of 0.01 M DTNB, 10 μL of enzyme, and 50 μL of 0.01 M substrate (ATC). The substrate was added to the assay medium containing enzyme, buffer, and DTNB with inhibitor after 15 min of incubation time. […] In vitro BuChE assay use the similar method described above.

[2] = biological target: Cholinesterase (Equus caballus, UniProt P81908); assay: Enzyme Inhibition Assay; details: pH 8; 37 °C
Experimental: as §1

Sequence of Acetylcholinesterase (O42275 whole entry): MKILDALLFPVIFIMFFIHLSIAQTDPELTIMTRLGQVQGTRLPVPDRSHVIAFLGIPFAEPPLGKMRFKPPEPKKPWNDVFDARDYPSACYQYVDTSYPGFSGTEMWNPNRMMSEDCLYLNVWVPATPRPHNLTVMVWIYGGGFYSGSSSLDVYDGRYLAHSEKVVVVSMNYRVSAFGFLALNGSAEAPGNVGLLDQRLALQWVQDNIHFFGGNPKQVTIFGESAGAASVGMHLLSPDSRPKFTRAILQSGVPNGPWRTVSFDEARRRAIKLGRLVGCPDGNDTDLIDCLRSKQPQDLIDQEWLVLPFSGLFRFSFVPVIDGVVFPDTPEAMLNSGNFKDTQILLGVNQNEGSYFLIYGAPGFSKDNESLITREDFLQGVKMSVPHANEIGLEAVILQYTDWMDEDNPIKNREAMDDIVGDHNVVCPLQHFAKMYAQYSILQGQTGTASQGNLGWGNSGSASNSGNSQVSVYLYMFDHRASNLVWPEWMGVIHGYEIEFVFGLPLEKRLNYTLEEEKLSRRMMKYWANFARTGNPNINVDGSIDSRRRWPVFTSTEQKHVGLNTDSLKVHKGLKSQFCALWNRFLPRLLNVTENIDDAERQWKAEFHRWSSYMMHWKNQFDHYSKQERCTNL
Sequence of Cholinesterase (P81908 whole entry): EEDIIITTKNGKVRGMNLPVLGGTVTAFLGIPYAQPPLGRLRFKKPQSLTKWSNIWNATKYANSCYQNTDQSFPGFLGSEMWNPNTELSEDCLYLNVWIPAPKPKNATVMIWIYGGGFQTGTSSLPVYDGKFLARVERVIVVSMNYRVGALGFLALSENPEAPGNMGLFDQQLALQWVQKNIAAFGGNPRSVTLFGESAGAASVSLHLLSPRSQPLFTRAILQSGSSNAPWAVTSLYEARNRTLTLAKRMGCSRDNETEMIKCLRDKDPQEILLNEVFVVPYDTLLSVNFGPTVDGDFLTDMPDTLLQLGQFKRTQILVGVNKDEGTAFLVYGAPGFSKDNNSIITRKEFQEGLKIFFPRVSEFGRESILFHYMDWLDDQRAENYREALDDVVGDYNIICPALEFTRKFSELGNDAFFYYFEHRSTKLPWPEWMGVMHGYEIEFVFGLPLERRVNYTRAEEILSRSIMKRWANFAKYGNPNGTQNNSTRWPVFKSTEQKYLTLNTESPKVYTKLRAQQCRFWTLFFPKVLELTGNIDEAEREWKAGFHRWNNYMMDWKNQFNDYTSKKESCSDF

SMILES | IC50 [1] [µM] | IC50 [2] [µM]
COc1cc(CNCCCCCCCCNCc2cc(OC)c3c(c2)OCO3)cc2c1OCO2 [N1, N8-bis((7-methoxybenzo[d][1,3]dioxol-5-yl)methyl)octane-1,8-diamine (5f)] | 2.79 | 3.11
COc1cc(CNCCCNCc2cc(OC)c3c(c2)OCO3)cc2c1OCO2 [N1,N3-bis((7-methoxybenzo[d][1,3]dioxol-5-yl)methyl)propane-1,3-diamine (5a)] | > 125 | 52.3
COc1cc(CNCCCCNCc2cc(OC)c3c(c2)OCO3)cc2c1OCO2 [N1,N4-bis((7-methoxybenzo[d][1,3]dioxol-5-yl)methyl)butane-1,4-diamine (5b)] | 120 | 12.1
COc1cc(CNCCCCCNCc2cc(OC)c3c(c2)OCO3)cc2c1OCO2 [N1,N5-bis((7-methoxybenzo[d][1,3]dioxol-5-yl)methyl)pentane-1,5-diamine (5c)] | 13.2 | 3.35
COc1cc(CNCCCCCCNCc2cc(OC)c3c(c2)OCO3)cc2c1OCO2 [N1,N6-bis((7-methoxybenzo[d][1,3]dioxol-5-yl)methyl)hexane-1,6-diamine (5d)] | 9.78 | 2.07
COc1cc(CNCCCCCCCNCc2cc(OC)c3c(c2)OCO3)cc2c1OCO2 [N1,N7-bis((7-methoxybenzo[d][1,3]dioxol-5-yl)methyl)heptane-1,7-diamine (5e)] | 4.24 | 3.02
COc1cc(CNCCCCCCCCCNCc2cc(OC)c3c(c2)OCO3)cc2c1OCO2 [N1,N9-bis((7-methoxybenzo[d][1,3]dioxol-5-yl)methyl)nonane-1,9-diamine (5g)] | 2.76 | 5.14
